In patent US20110064661A1, “NON-RADIOACTIVE PHOSPHOLIPID COMPOUNDS, COMPOSITIONS, AND METHODS OF USE” (priority 2009, published 2011):

Key:
A549 cells [1] = experiment: Cell growth inhibition by MTT assay; assay type: cell-based, human
Method: 2. Cell Growth Inhibition by ^127I-CLR1401. • 1) Growth inhibition induced by ^127I-CLR1401 was determined by MTT(3-(4,5-dimethylthiazol-2-yl)-2,5-diphenyl […] bromide) assay. MTT is a pale yellow substrate that is cleaved by living cells to yield a dark blue formazan product.
Briefly, A549 cells were plated at a density of 200,000 cells per well in a six well plate and allowed to adhere overnight.
The cells were then treated with varying concentrations of ^127I-CLR1401 (0.0078, 0.392, 0.784, 1.568, 3.137, 4.705, 7.84, 39.2, 78.4 μM) in triplicate and then collected for the MTT assay at the indicated time points. Cells were then incubated with 0.5 mg/ml MTT in 1×PBS for 3 hours at 37° C. with 5% CO2 in air.
Absorbance was measured at 540 nm using a Synergy HT microplate reader. The absorbance value at 540 nm is directly proportional to the number of viable cells present.

active Akt (pAkt, S473) [2] = experiment: Inhibition of Akt activation (pAkt Ser473 sandwich ELISA) in PC-3 cells; assay type: cell-based; settings: Homo sapiens
Method: PC-3 cells, obtained from American Type Culture Collection (ATCC), are a human prostate carcinoma cell line. PC-3 cells have a homozygous deletion of PTEN.
(§1) A549 and PC-3 cells were plated at a density of 200,000 cells per ml.
(§2) All treatments were preformed in triplicate.
(§3) A549 and PC-3 cells are treated with ^127I-CLR1401 for 24 hours. • 0, 3, 5, 10 μM of ^127I-CLR1401 • Protein was isolated from treated cells. • The level of activated Akt was determined by examining the phosphorylated (active) form at Ser473 by enzyme linked immunosorbent assay (ELISA). • PathScan Phospho-Akt1 (Ser473) Sandwich ELISA Kit (Cell Signaling #7160). • ELISA controls: • Negative Control: A549 and PC-3 cells treated with 50 μM LY294,002 for 24 hrs. LY294,002 is a specific cell permeable phosphatidylinositol 3-kinase (PI3K) inhibitor that inhibits the activation of Akt by affecting the amount of phosphatidylinositol(3,4,5) trisphosphate produced by PI3K. • Positive Control: A549 and PC-3 cells stimulated with 10 μg/ml Insulin for 24 hrs. • Negative Control: A549 in serum free media. • 1) The ELISA was preformed per the manufacturer's instructions. Briefly, 100 μg of protein from the cell lysates were incubated in the pre-coated 96-well plate overnight at 4° C. The wells were then washed 4 times with 1XWash Buffer (also provided). Then incubated with the primary Akt antibody for 2 hours at 37° C. with 5% CO2 in air. After the primary incubation the plate was then washed 4 times with 1XWash Buffer and incubated with the HRP-linked secondary antibody for 1 hour at 37° C. with 5% CO2 in air. The plate was then washed 4 times with 1× Wash Buffer and developed using the TMB substrate provided. TMB substrate (tetramethylbenzidine) is a colormetric substrate used in the ELISA assay. TMB (3,3″,5,5″-tetramethylbenzidine) is a chromogen that yields a blue color when oxidized with hydrogen peroxide (catalyzed by HRP) with major absorbances at 370 nm and 652 nm. The color then changes to yellow with the addition of sulfuric or phosphoric acid with maximum absorbance at 450 nm. it is used for the detection of target proteins that have been bound to an antibody that contains a Horseradish Peroxidase tag. • After the 10 minute incubation at 37° C. the reaction was stopped by the addition of stop buffer (also provided). The absorbance was then measured at 450 nm using a Synergy HT microplate reader (BioTek). Data are reported as absorbance at 450 nm.

active Akt (pAkt, S473) [3] = experiment: Inhibition of Akt activation (pAkt Ser473 sandwich ELISA) in A549 cells; assay type: cell-based; settings: Homo sapiens
Method: A549 cells, obtained from American Type Culture Collection (ATCC), are a human non-small cell lung cancer cell line. A549 cells have wild-type functional PTEN.
as §1, §2, §3

A549 cells [4] = experiment: Uptake and Retention Assay of 125I-CLR1404; assay type: cell-based, human; settings: 24 hours, 0.588-2.156 μM, serum free media
Method: The Uptake and Retention Assay was preformed as described previously. Briefly, A549 human NSCLC cells were plated at a density of 150,000 cells/ml in 6-well plates.
Cells were then allowed to adhere overnight. All plates were then treated with the indicated mass of either ^125I-CLR1404 with or without ^127I-CLR1401 as indicated by the experimental parameters.
Cells were incubated in the presence of drug for 24 hrs prior to collection. At 24 hrs post treatment, the media was removed and the cells were washed once with 1 ml of ice cold 1×PBS+1% BSA. The cells were then removed from the plate by trypsinization with 1 ml of 1× Trypsin 1×PBS solution and split into 2 samples of 500 μl each. Both sets of sample were pelleted by centrifugation for 30 seconds at 2000×g at room temperature. The supernatant was removed and discarded.
One pellet for each sample set was resuspended in 200 μl of 1×PBS (Tube 1, Sample 1), and the other pellet was resuspened in 100% EtOH (Tube 2, Sample 1). A 100 μl sample from Tube 1 was taken for evaluation of DNA content in order to determine cell number (data was generated using absorbance at 260 nm in a microplate reader). A 10 μl sample from Tube 2 was taken for evaluation of radioactivity content using a gamma counter. […] All treatments were preformed in Serum Free media. […]

[5] = 3 μM, 24 hours, read-out: Percent Inhibition of Akt
[6] = 5 μM, 24 hours, read-out: Percent Inhibition of Akt
[7] = 10 μM, 24 hours, read-out: Percent Inhibition of Akt

| Molecule | IC50 (A549 cells [1]; Homo sapiens, A549 cells, MTT, read-out: 50% inhibitory concentration for cell growth) [µM] | effect on the growth of A549 cells (A549 cells [1]; low doses, FIG. 5A) | IC50 (active Akt (pAkt, S473) [2]) [µM] | inhibition at 3 µM (active Akt (pAkt, S473) [2]; [5]) [%] | inhibition at 5 µM (active Akt (pAkt, S473) [2]; [6]) [%] | inhibition at 10 µM (active Akt (pAkt, S473) [2]; [7]) [%] | IC50 (active Akt (pAkt, S473) [3]) [µM] | inhibition at 3 µM (active Akt (pAkt, S473) [3]; [5]) [%] | inhibition at 5 µM (active Akt (pAkt, S473) [3]; [6]) [%] | inhibition at 10 µM (active Akt (pAkt, S473) [3]; [7]) [%] | uptake and retention of 125I-CLR1404 with increasing mass dose of 125I-CLR1404 (A549 cells [4]) |
| --- | --- | --- | --- | --- | --- | --- | --- | --- | --- | --- | --- |
| C[N+](C)(C)CCOP(=O)([O-])OCCCCCCCCCCCCCCCCCCc1ccc(I)cc1 [^127I-CLR1401, 18-(p-Iodophenyl)octadecyl phosphocholine] | 4.5 | no significant effect | 5 | 21 | 61 | 97 | 5.9 | 26 | 42 | 85 |  |
| 18-(p-Iodophenyl)octadecyl phosphocholine [^125I-CLR1404] |  |  |  |  |  |  |  |  |  |  | distinct increase in the amount of compound taken up and retained |
